In ChEMBL document CHEMBL1141367, “Substituted 2-[(4-aminomethyl)phenoxy]-2-methylpropionic acid PPARalpha agonists. 1. Discovery of a novel series of potent HDLc raising agents” (J Med Chem, 2007):

Legend:
Mus musculus [1] = experiment: Increase in HDL cholesterol level in human Apo-A-I transgenic C57BL/6 mouse at 50 mg/kg; assay type: functional
Mus musculus [2] = experiment: Decrease in plasma TG level in human Apo-A-I transgenic C57BL/6 mouse at 50 mg/kg; assay type: functional; parameters: scale not given: the % may be the effect or the level left
Mus musculus [3] = experiment: Decrease in plasma VLDL level in human Apo-A-I transgenic C57BL/6 mouse at 50 mg/kg; assay type: functional; parameters: scale not given: the % may be the effect or the level left
Mus musculus [4] = experiment: Decrease in LDL cholesterol level in human Apo-A-I transgenic C57BL/6 mouse at 50 mg/kg; assay type: functional; parameters: scale not given: the % may be the effect or the level left
[5] = biological target: T1, Peroxisome proliferator-activated receptor delta (Homo sapiens, UniProt Q03181)
T1 sequence (Q03181 whole entry): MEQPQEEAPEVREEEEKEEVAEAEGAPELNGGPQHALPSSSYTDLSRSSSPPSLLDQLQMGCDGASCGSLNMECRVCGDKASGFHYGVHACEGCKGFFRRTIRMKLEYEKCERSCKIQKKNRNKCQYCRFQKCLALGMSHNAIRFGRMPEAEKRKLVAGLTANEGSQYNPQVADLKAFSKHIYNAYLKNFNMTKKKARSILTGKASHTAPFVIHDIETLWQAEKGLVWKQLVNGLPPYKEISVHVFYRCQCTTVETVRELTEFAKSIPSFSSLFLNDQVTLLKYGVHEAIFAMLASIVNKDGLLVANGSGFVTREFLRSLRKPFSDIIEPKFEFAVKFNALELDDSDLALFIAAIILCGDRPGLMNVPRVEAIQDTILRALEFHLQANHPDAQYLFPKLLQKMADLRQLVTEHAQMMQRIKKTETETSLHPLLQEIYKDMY
Description: Agonist potency at PPARdelta in CV1 cells by cell based transient transfection assay

[6] = biological target: T2, Peroxisome proliferator-activated receptor alpha (Homo sapiens, UniProt Q07869)
T2 sequence (Q07869 whole entry): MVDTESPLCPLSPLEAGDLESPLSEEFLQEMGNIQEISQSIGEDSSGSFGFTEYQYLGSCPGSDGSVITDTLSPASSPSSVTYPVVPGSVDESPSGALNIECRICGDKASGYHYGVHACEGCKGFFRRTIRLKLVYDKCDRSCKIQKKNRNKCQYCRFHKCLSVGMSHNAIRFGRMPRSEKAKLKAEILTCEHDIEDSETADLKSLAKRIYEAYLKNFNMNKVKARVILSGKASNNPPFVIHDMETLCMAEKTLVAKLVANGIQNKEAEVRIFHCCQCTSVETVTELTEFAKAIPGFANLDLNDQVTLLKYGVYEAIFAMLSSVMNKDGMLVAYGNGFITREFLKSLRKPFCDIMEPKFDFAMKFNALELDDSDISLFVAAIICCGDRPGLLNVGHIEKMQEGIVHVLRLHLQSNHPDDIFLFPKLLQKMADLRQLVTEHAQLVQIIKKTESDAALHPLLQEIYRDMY
Description: Agonist potency at PPARalpha in CV1 cells by cell based transient transfection assay

[7] = biological target: T3, Peroxisome proliferator-activated receptor gamma (Homo sapiens, UniProt P37231); assay type: functional, cell-based, CV-1
T3 sequence (P37231 whole entry): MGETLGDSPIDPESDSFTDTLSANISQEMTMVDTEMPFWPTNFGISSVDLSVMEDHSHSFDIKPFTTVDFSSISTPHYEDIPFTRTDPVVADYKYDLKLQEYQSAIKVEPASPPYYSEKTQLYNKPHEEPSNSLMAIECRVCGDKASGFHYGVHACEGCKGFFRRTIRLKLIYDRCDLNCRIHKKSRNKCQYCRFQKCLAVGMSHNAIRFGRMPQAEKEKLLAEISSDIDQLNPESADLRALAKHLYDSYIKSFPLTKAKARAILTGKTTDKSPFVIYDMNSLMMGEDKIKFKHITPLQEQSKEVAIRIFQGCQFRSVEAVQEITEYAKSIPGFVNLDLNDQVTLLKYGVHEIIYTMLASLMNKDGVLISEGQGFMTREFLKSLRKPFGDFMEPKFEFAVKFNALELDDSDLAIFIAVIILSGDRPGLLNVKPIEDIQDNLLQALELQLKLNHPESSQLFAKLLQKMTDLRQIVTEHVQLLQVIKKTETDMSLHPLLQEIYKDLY
Description: Agonist potency at PPARgamma in CV1 cells by cell based transient transfection assay

[8] = biological target: T4, Peroxisome proliferator-activated receptor alpha (Homo sapiens) (UniProt Q07869); experiment: Agonist potency at PPARalpha expressed in CV1 cells relative to GW-590735; assay type: functional, cell-based; conditions: CV-1
T4 sequence (whole entry): T2 sequence (Q07869 whole entry)

SMILES	EC50 [5] [nM]	EC50 [6] [nM]	EC50 [7] [nM]	Activity [8] [%]	Activity (Mus musculus [1]) [%]	Activity (Mus musculus [2]) [%]	Activity (Mus musculus [3]) [%]	Activity (Mus musculus [4]) [%]
CC(C)OC(=O)C(C)(C)Oc1ccc(C(=O)c2ccc(Cl)cc2)cc1 [FENOFIBRATE]	–	–	–	–	26	43	64	78
Cc1nc(-c2ccc(OS(C)(=O)=O)cc2)sc1C(=O)NCc1ccc(OC(C)(C)C(=O)O)cc1	> 10000	> 10000	> 10000	–	–	–	–	–
Cc1cc(SCc2sc(-c3ccc(C(F)(F)F)cc3)nc2C)ccc1OCC(=O)O	–	–	–	108	–	–	–	–
Cc1nc(C(=O)NCc2ccc(OC(C)(C)C(=O)O)cc2)c(C)s1	660	1890	> 10000	171	–	–	–	–
Cc1nc(-c2ccc(C(F)(F)F)cc2)sc1CNCc1ccc(OC(C)(C)C(=O)O)cc1	4050	70	> 10000	110	–	–	–	–
Cc1nc(-c2ccc(C(F)(F)F)cc2)sc1C(=O)N(C)Cc1ccc(OC(C)(C)C(=O)O)cc1	> 10000	240	> 10000	84	–	–	–	–
Cc1cc(CCc2sc(-c3ccc(C(F)(F)F)cc3)nc2C)ccc1OCC(=O)O	4	2000	10000	85	–	–	–	–
Cc1nc(-c2ccc(C(F)(F)F)cc2)sc1CCc1ccc(OC(C)(C)C(=O)O)cc1	20	210	1870	138	–	–	–	–
Cc1nc(-c2ccc(C(F)(F)F)cc2)sc1CNC(=O)c1ccc(OC(C)(C)C(=O)O)cc1	6260	1320	> 10000	109	–	–	–	–

The next lines start with results.

EC50 [5] [nM]	EC50 [6] [nM]	EC50 [7] [nM]	Activity [8] [%]	SMILES	Activity (Mus musculus [1]) [%]	Activity (Mus musculus [2]) [%]	Activity (Mus musculus [3]) [%]	Activity (Mus musculus [4]) [%]
> 10000	9500	> 10000	69	Cc1nc(-c2ccc(C(F)(F)F)cc2)sc1C(=O)Nc1ccc(OC(C)(C)C(=O)O)cc1	–	–	–	–
> 10000	110	> 10000	129	Cc1nc(-c2ccc(C(F)(F)F)cc2)sc1C(=O)NCCc1ccc(OC(C)(C)C(=O)O)cc1	–	–	–	–
> 10000	10	> 10000	103	COc1ccc(-c2nc(C)c(C(=O)NCc3ccc(OC(C)(C)C(=O)O)cc3)s2)cc1	–	–	–	–
808	465	> 25000	82	Cc1nc(-c2ccccc2C(F)(F)F)sc1C(=O)NCc1ccc(OC(C)(C)C(=O)O)cc1	–	–	–	–
> 10000	> 10000	> 10000	–	Cc1nc(-c2ccc(O)cc2)sc1C(=O)NCc1ccc(OC(C)(C)C(=O)O)cc1	–	–	–	–
–	–	> 10000	116	Cc1nc(-c2ccc(OC(F)(F)F)cc2)sc1C(=O)NCc1ccc(OC(C)(C)C(=O)O)cc1	–	–	–	–
8240	4	730	98	CC(C)(Oc1ccc(CNC(=O)c2sc(-c3ccc(C(F)(F)F)cc3)nc2C(F)(F)F)cc1)C(=O)O	–	–	–	–
–	10	> 10000	94	Cc1nc(-c2ccc(Cl)cc2)sc1C(=O)NCc1ccc(OC(C)(C)C(=O)O)cc1	–	–	–	–
> 10000	–	860	66	Cc1nc(-c2ccc(C(C)(C)C)cc2)sc1C(=O)NCc1ccc(OC(C)(C)C(=O)O)cc1	–	–	–	–
> 10000	5640	> 10000	67	Cc1nc(-c2ccc(N)cc2)sc1C(=O)NCc1ccc(OC(C)(C)C(=O)O)cc1	–	–	–	–
> 25000	4	> 25000	106	Cc1nc(-c2cccc(C(F)(F)F)c2)sc1C(=O)NCc1ccc(OC(C)(C)C(=O)O)cc1	–	–	–	–
> 10000	30	> 10000	111	Cc1nc(-c2ccc([N+](=O)[O-])cc2)sc1C(=O)NCc1ccc(OC(C)(C)C(=O)O)cc1	–	–	–	–
> 10000	40	> 10000	118	Cc1nc(-c2ccc(F)cc2)sc1C(=O)NCc1ccc(OC(C)(C)C(=O)O)cc1	–	–	–	–
